According to patent publication US7951364B2, “CaR receptor as a mediator of migratory cell chemotaxis and/or chemokinesis” (The General Hospital Corporation, priority 2000, dated 2011):
Blank lines part the entries; values can stand above or below the molecule they belong to.

How the values were obtained:
[1] = system: CD14^+ monocytes; assay: Transmigration assay (monocyte chemotaxis, transwell); type: cell-based, human; conditions: for Stimulation of transmigration: monocytes; for Inhibition of monocyte chemotaxis towards a positive gradient of Ca^++ by pretreatment: Ca^++ at 3 mM; for Interaction of chemokine with added/elevated Ca^++ on transmigration: chemokine in combination with elevated Ca^++; for Dependence of chemokine-induced chemotaxis of CD14^+ PBMC on extracellular calcium: positive concentration gradient of chemokine
Description: (§1) Preparation of peripheral blood CD14^+ monocytes. Low density cells were isolated from human and mouse peripheral blood using Ficoll-Hypaque (Pharmacia, Piscataway, N.J.). CD14^+ monocytes were purified by sorting on FACSVantage (Becton Dickinson, San Jose, Calif.) based on CD14 expression. Purified cells were incubated in either calcium-free medium (Hanks' Balanced Salt Solution 1×, CellGro, Hermdon. VA) or Iscove's Medium 1×(Mod) (CellGro, Herndon, Va.) which contains 1.5 mM Ca++. […] Cells were incubated for up to 24 hours in 5% CO2 humidified air. Monocytes were then detached from the plate using a cell scraper. All calcium concentrations indicated in the presentation of the data represent the total Ca^++ present in the basal medium plus any added Ca^++.
(§2) Transmigration assays. Transwells (5 μm pore size polycarbonate membrane, 12 mm diameter) (Costar, Corning, N.Y.) were used to assess cell migration using an established methodology (25). The concentration of Ca^++ in IMDM (CellGro, Herndon, Va.) in the upper and lower chambers of the transwell were adjusted according to a checkerboard analysis of chemotaxis. Calcium concentrations varied from 0 mM to 6.5 mM. Purified monocytes (1×10^4) were then placed in the top chamber with 150 μl of IMDM (CellGro, Hemdon, Va.). 500 μl of the medium was added to the bottom of the well and supplemented with varying concentrations of Ca^++ or with Ca^++ plus 10 ng/ml of MCP-1, 100 ng/ml of SDF-1α or 10 ng/ml of MIP-1α (PeproTech, Rocky Hills, N.Y.). Cells were incubated at 37° C. for 3 hours. To study inhibition of chemotaxis, cells were subsequently incubated with wortmannin (1 μM for 20 minutes at 37° C.), herbimycin (1 μM for 20 minutes at 37° C.) or genistein (1 μg/ml for 20 minutes at 37° C.), before their use in transmigration assays. At the end of the experiment, cells were then harvested from the lower chamber and counted using a hemocytometer.

[2] = system: CCR-2; assay: Chemokine receptor expression on monocytes by flow cytometry: CCR-2; type: cell-based, human; conditions: for Mean fluorescent intensity -CCR-2 Mean +/− s.e.m.: CD14^+ monocytes, agonist 1 μM in the presence of 1.5 mM Ca^++
Description: (§3) Chemokine receptor expression and flow cytometric analysis.
Table 1: Exposure of CD14^+ monocytes to Ca^++ enhances CCR2 expression in a dose dependent manner. Monocytes were exposed to varying concentrations of Ca^++ and to the selective CaR activator, NPS R-467 (1 μM), or to NPS S-467 (1 μM) in the presence of 1.5 mM Ca^++. The median fluorescence intensity for CCR2 expression was measured for each Ca^++ concentration and in the presence of NPS R-467 or S-467. Mean values +/−s.e.m. from three independent experiments are shown.

[3] = system: monocytes (Mac-1 positive mononuclear cells); assay: Biologic activity in vivo: subcutaneous injection, monocyte infiltration at injection site; set-up: species or system C57BL/6 mice; conditions: tissue excised 18 hours later, CaCl2 5.0 mM, NPS R-467 10 μM
Description: Biologic activity of ionic calcium in vivo. C57BL/6 mice (Jackson Laboratories) were injected subcutaneously at a marked, shaved spot on the abdomen with 20 μl of 5 mM CaCl2 or 20 μl of MCP-1 at a concentration of 10 ng/ml, with a combination of MCP-1 and 5 mM CaCl2 or with 10 μM NPS R-467 in PBS. Control mice were injected subcutaneously with 20 μl PBS alone. All subcutaneously injected agents contained less than 0.004 ng/ml of LPS by the limulus assay (Sigma) as previously described (Bleul, C. C., et al., J Exp Med, 1996, 184:1101-1109). Mice were sacrificed by CO2 asphyxiation 18 hours after injection, and injection sites were excised, snap-frozen and 4 μm cryosections were obtained and stained with hematoxylin and eosin. Immunocytochemistry was performed on the frozen sections using alkaline phosphatase-conjugated Mac-1 antibody (Pharmingen) as previously described and assessed by light microscopy (Bleul, C. C., et al., supra).

[4] = biological target: T1, CaR (Homo sapiens, UniProt P41180); assay: Cytosolic calcium changes in purified monocytes (Indo-1/AM, flow cytometry); type: cell-based; conditions: for Increase in cytosolic calcium: 1 μM in the presence of 1.5 mM Ca^++; for Stimulation of cytosolic calcium responses: monocytes
T1 construct: endogenous in cells; host or cells: peripheral blood CD14+ monocytes, sorted by FACS
T1 sequence (P41180 20-1078): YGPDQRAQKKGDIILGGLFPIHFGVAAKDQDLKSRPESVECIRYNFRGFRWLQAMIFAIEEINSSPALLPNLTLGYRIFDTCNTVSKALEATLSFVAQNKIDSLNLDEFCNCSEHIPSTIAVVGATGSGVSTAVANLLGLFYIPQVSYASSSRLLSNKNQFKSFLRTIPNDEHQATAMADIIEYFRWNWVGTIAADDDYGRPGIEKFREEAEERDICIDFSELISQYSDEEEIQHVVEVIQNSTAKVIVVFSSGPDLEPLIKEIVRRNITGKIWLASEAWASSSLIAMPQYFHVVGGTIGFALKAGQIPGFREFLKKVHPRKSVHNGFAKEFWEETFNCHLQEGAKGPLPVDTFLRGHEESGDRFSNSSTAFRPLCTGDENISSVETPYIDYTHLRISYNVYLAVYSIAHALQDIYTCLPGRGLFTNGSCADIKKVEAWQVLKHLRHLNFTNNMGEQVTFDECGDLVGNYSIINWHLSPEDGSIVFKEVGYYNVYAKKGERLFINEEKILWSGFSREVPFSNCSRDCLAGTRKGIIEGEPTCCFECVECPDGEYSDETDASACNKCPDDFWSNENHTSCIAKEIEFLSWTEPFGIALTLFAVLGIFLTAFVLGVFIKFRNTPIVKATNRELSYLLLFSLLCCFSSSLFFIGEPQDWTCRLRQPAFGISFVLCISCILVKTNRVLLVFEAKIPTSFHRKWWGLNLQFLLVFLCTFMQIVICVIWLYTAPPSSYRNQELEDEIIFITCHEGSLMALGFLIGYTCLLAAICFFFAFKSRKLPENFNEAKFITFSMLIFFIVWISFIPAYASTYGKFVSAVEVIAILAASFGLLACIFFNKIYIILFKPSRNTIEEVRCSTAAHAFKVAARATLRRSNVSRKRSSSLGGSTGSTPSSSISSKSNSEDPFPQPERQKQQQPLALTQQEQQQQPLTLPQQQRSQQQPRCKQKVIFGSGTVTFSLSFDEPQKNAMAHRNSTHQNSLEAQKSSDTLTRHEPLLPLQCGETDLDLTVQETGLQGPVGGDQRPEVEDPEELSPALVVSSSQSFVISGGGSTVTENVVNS
Description: as §1
Cytosolic calcium changes. Purified monocytes were loaded with Indo-1/AM (Molecular Probes, Eugene, Oreg.). Cells were collected on FACSVantage for 0.30 sec to establish a baseline emission value for Indo-1/AM. […] Data acquisition then continued for up to 5 minutes.

[5] = system: CaR; assay: CaR surface expression on monocytes after exposure to chemokines; type: cell-based, human; conditions: monocytes after chemokine stimulation; untreated 361+/−25
Excerpt: as §3
In order to assess whether there was reciprocal regulation of the CaR by chemokine receptors, we evaluated CaR surface expression on cells before and after exposure to the chemokines, SDF-1α or MCP-1. The mean fluorescence intensity of CaR expression was 361+/−25 (mean+/−s.e.m.) units for untreated monocytes and rose to 673+/−59 following MCP-1 stimulation. Monocytic expression of CaR rose to 519+/−48 with SDF-1α a treatment.

[6] = system: mononuclear cells derived from neonatal CaR −/−, +/− or +/+ mice; assay: Transmigration assay with cells from CaR knockout and wild-type mice; type: cell-based, mouse; conditions: CaR −/−, +/− or +/+ cells
Description: as §2
CaR−/− were bred as previously described (Ho, C., et al., Nat Genet 1995, 11:389-94). To produce CaR−/− mice for this study, heterozygote mice were intercrossed. The mice studied were either 129S6/svev or 129S6/svev/Swiss Webster mixed genetic background. […]

[7] = system: human CD34^+ cells; assay: In vitro assays of human CD34^+ hematopoietic progenitor cells; type: cell-based; conditions: in the setting of CaR activation
Excerpt: Calcium ions effect Hematopoietic Progenitor Cells. We also assessed the effects of calcium, through its interaction with the calcium sensing receptor (CaR) using in vitro assays of human CD34^+ cells. […] Therefore, calcium participates in maintaining candidate stem cells in a primitive, undifferentiated state. […] This was accompanied by a decrease in the level of LTC-ICs in the bone marrow, but an increase in the level of CFU-Cs, with a converse increase in hematopoietic stem cells in is the peripheral blood.

- Mean fluorescent intensity -CCR-2 Mean +/− s.e.m. [2]: 460 +/− 52
- Increase in cytosolic calcium [4]: Sustained increases
- Stimulation of cytosolic calcium responses [4]: Stimulation
Molecule: COc1cccc([C@@H](C)NCCCc2ccccc2)c1 [NPS R-467, reference compound]
- Potency of R-467 vs. S-467 in enhancing actions of high Ca^++ (cytosolic calcium, chemotaxis) [1]: greater potency
- Stimulation of transmigration [1]: Stimulation
- Accumulation of mononuclear cells staining positive for Mac-1 at injection site [3]: Accumulation

- Mean fluorescent intensity -CCR-2 Mean +/− s.e.m. [2]: 417 +/− 48
- Increase in cytosolic calcium [4]: Sustained increases
- Stimulation of cytosolic calcium responses [4]: Stimulation
Molecule: COc1cccc([C@H](C)NCCCc2ccccc2)c1 [NPS S-467, reference compound]
- Stimulation of transmigration [1]: Stimulation

Molecule: C[C@@H]1C[C@@H]([C@H](O)CC2CC(=O)NC(=O)C2)C(=O)[C@@H](C)C1 [cyclohexamide, reference compound]
- Effect on the Ca^++-mediated upregulation of CCR-2 ([2]; inhibition of new protein synthesis): no effect

Molecule: O=c1c(-c2ccc(O)cc2)coc2cc(O)cc(O)c12 [genistein, reference compound]
- Inhibition of Ca^++-induced monocyte chemotaxis by pretreatment [1]: inhibitable
- Inhibition of monocyte chemotaxis towards a positive gradient of Ca^++ by pretreatment [1]: inhibitable

Molecule: CO[C@H]1[C@@H](OC)C[C@H](C)[C@@H](OC)C2=CC(=O)C=C(NC(=O)/C(C)=C/C=C\[C@H](OC)[C@@H](OC(N)=O)/C(C)=C/[C@@H]1C)C2=O [herbimycin, reference compound]
- Inhibition of Ca^++-induced monocyte chemotaxis by pretreatment [1]: inhibitable
- Inhibition of monocyte chemotaxis towards a positive gradient of Ca^++ by pretreatment [1]: inhibitable

- Stimulation of cytosolic calcium responses [4]: Stimulation
Molecule: NCCCNCCCCNCCCN [spermine, reference compound]
- Stimulation of transmigration [1]: Stimulation

Molecule: MCP-1: chemokine (PeproTech), ligand of CCR-2
- Mean fluorescence intensity of CaR expression (mean+/−s.e.m.) [5]: 673+/−59 units
- Interaction of chemokine with added/elevated Ca^++ on transmigration [1]: synergistic
- Dependence of chemokine-induced chemotaxis of CD14^+ PBMC on extracellular calcium [1]: dependent upon extracellular calcium
- Accumulation of mononuclear cells staining positive for Mac-1 at injection site [3]: Accumulation
- Chemotaxis of mouse mononuclear cells [6]: capable of chemotaxing

Molecule: SDF-1α
- Mean fluorescence intensity of CaR expression (mean+/−s.e.m.) [5]: 519+/−48 units
- Interaction of chemokine with added/elevated Ca^++ on transmigration [1]: no synergistic effect
- Dependence of chemokine-induced chemotaxis of CD14^+ PBMC on extracellular calcium [1]: induced migration independent of calcium
- Chemotactic responses of primitive hematopoietic cells to SDF-1α [7]: attenuated

B1: MIP-1α: chemokine (PeproTech) (protein, UniProt P10147 24-92, looked up)
C-C motif chemokine 3: SLAADTPTACCFSYTSRQIPQNFIADYFETSSQCSKPGVIFLTKRSRQVCADPSEEWVQKYVSDLELSA
- Interaction of chemokine with added/elevated Ca^++ on transmigration [1]: no synergistic effect
- Dependence of chemokine-induced chemotaxis of CD14^+ PBMC on extracellular calcium [1]: induced migration independent of calcium
